The values that follow come from patent US11857519B2, “Compounds and methods for the targeted degradation of enhancer of zeste homolog 2 polypeptide” (Arvinas Operations, Inc., priority 2016, dated 2024).

Structures are written as SMILES.

T1 sequence (Q15910 whole entry): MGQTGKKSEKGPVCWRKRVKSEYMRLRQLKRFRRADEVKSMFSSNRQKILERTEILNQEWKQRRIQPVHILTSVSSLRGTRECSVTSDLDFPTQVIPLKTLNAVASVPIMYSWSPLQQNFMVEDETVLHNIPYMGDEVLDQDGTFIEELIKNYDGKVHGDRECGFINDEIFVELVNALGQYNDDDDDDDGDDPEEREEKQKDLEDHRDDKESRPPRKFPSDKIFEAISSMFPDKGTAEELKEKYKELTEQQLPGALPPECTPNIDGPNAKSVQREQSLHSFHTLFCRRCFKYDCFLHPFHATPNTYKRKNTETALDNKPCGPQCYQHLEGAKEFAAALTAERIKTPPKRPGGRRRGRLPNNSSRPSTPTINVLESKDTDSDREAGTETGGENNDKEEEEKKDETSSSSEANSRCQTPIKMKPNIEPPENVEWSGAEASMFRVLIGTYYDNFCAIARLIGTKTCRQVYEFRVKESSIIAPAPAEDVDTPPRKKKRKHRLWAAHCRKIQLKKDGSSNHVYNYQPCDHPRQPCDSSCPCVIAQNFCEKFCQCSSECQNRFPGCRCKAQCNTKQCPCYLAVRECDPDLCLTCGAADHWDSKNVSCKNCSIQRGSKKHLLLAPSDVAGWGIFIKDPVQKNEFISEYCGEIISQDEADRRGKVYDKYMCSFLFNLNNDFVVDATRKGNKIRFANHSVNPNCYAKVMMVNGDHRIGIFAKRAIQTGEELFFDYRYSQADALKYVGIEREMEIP
T1 sequence (O75530 whole entry partner): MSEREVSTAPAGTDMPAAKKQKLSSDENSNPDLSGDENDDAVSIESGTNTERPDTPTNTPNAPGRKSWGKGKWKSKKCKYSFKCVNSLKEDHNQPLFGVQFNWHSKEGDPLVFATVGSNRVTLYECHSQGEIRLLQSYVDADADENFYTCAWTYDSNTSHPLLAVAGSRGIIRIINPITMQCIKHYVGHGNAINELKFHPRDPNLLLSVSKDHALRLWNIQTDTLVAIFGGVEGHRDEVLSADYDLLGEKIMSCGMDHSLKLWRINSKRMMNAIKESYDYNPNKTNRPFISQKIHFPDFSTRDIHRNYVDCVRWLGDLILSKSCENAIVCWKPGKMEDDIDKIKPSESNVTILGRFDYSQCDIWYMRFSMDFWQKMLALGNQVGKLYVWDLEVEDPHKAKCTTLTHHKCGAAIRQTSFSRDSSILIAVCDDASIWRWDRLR
T1 sequence (Q15022 whole entry partner): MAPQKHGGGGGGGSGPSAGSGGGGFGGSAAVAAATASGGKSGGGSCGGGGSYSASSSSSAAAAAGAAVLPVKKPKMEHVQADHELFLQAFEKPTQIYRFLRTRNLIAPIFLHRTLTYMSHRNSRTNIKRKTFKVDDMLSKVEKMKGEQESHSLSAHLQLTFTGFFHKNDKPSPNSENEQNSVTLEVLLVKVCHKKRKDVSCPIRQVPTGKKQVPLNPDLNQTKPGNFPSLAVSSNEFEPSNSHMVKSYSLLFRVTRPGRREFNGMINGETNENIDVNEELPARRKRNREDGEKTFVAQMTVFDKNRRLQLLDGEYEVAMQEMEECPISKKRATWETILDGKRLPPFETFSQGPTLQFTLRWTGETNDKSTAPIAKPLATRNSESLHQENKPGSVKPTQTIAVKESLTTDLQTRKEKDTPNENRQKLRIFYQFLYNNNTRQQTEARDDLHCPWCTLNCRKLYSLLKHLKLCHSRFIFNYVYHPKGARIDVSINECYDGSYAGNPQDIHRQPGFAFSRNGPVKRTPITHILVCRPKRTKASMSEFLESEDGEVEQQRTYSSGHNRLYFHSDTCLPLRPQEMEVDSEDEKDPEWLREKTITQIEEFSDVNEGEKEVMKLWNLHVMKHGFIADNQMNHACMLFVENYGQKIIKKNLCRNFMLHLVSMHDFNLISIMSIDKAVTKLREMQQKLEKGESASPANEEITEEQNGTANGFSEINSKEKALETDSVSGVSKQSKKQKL

This experiment addresses T1, EZH2 (Homo sapiens, UniProt Q15910).
T1 construct: Protocol of the Cellular Assay of Target Protein Degradation (VCaP Cells, ELISA); endogenous in cells; host or cells: VCaP cells
Put plainly: Cellular assay of target protein degradation (VCaP cells, ELISA). The class given is cell-based. The note with it: 4 hours, protein degradation range at indicated concentration (relative to DMSO control). In outline:
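EZH2 level measured by sandwich ELISA (TMB, A450 minus A562 background) in lysates of VCaP cells. Cells had been cultured at least 3 days in 5% CSS RPMI before 4 h compound exposure in 0.1% DMSO.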
Regarding `CCN(c1cc(-c2ccc(CCCOCCCCC(=O)N[C@H](C(=O)N3C[C@H](O)C[C@H]3C(=O)N[C@@H](C)c3ccc(-c4scnc4C)cc3)C(C)(C)C)cc2)cc(C(=O)NCc2c(C)cc(C)[nH]c2=O)c1C)C1CCOCC1` [Compound 88, (2S,4R)-1-((S)-2-(5-(3-(3′-(((4,6-dimethyl-2-oxo-1,2-dibydropyridin-3-yl)methyl)carbamoyl)-5′-(ethyl(tetrahydro-2H-pyran-4-yl)amino)-41-methyl-[1,1′-biphenyl]-4-yl)propoxy)pentanamido)-3,3-dimethylbutanoyl)-4-hydroxy-N-((S)-1-(4-(4-methylthiazol-5-yl)phenyl)ethyl)pyrrolidine-2-carboxamide], the “percent target protein degradation class” value was “A (A = degradation more than 60%)”.

Take `CCN(c1cc(-c2ccc(CCCOCCOCC(=O)N[C@H](C(=O)N3C[C@H](O)C[C@H]3C(=O)N[C@@H](C)c3ccc(-c4scnc4C)cc3)C(C)(C)C)cc2)cc(C(=O)NCc2c(C)cc(C)[nH]c2=O)c1C)C1CCOCC1` [Compound 89]: the “percent target protein degradation class” value was “A (A = degradation more than 60%)”.

In the case of `CCN(c1cc(-c2ccc(OCCCOc3cc(-c4scnc4C)ccc3CNC(=O)[C@@H]3C[C@@H](O)CN3C(=O)[C@H](C(C)C)N3Cc4ccccc4C3=O)cc2)cc(C(=O)NCc2c(C)cc(C)[nH]c2=O)c1C)C1CCOCC1` [Compound 90, (2S,4R)-N-(2-(3-((3′-(((4,6-dimethyl-2-oxo-1,2-dihydropyridin-3-yl)methyl)carbamoyl)-5′-(ethyl(tetrahydro-2H-pyran-4-yl)amino)-4′-methyl-[1,1′-biphenyl]-4-yl)oxy)propoxy)-4-(4-methylthiazol-5-yl)benzyl)-4-hydroxy-1-((S)-3-methyl-2-(1-oxoisoindolin-2-yl)butanoyl)pyrrolidine-2-carboxamide], the “percent target protein degradation class” value is “B (B = degradation between 30% and 60%)”.

For the compound `CCN(c1cc(-c2ccc(OCCN3CCN(c4ccc5c(c4)C(=O)N(C4CCC(=O)NC4=O)C5=O)CC3)cc2)cc(C(=O)NCc2c(C)cc(C)[nH]c2=O)c1C)C1CCOCC1` (stereo not drawn) [Compound 91, N-((4,6-dimethyl-2-oxo-1,2-dihydropyridin-3-yl)methyl)-4′-(2-(4-(2-(2,6-dioxopiperidin-3-yl)-1,3-dioxoisoindolin-5-yl)piperazin-1-yl)ethoxy)-5-(ethyl(tetrahydro-2H-pyran-4-yl)amino)-4-methyl-[1,1′-biphenyl]-3-carboxamide], the “percent target protein degradation class” value is given as “A (A = degradation more than 60%)”.

Regarding `CCN(c1cc(-c2ccc(OCCCCOCC(=O)N[C@H](C(=O)N3C[C@H](O)C[C@H]3C(=O)N[C@@H](C)c3ccc(-c4scnc4C)cc3)C(C)(C)C)cc2)cc(C(=O)NCc2c(C)cc(C)[nH]c2=O)c1C)C1CCOCC1` [Compound 93], the “percent target protein degradation class” value is listed as “A (A = degradation more than 60%)”.

With `CCN(c1cc(-c2ccc(OCCCCCOCC(=O)N[C@H](C(=O)N3C[C@H](O)C[C@H]3C(=O)N[C@@H](C)c3ccc(-c4scnc4C)cc3)C(C)(C)C)cc2)cc(C(=O)NCc2c(C)cc(C)[nH]c2=O)c1C)C1CCOCC1` [Compound 94, (2S,4R)-1-((S)-2-(2-((5-((3′-(((4,6-dimethyl-2-oxo-1,2-dihydropyridin-3-yl)methyl)carbamoyl)-5′-(ethyl(tetrahydro-2H-pyran-4-yl)amino)-4′-methyl-[1,1′-biphenyl]-4-yl)oxy)pentyl)oxy)acetamido)-3,3-dimethylbutanoyl)-4-hydroxy-N-((S)-1-(4-(4-methylthiazol-5-yl)phenyl)ethyl)pyrrolidine-2-carboxamide], the “percent target protein degradation class” value was “A (A = degradation more than 60%)”.

On to `CCN(c1cc(-c2ccc(OCCCOCC(=O)N[C@H](C(=O)N3C[C@H](O)C[C@H]3C(=O)N[C@@H](C)c3ccc(-c4scnc4C)cc3)C(C)(C)C)cc2)cc(C(=O)NCc2c(C)cc(C)[nH]c2=O)c1C)C1CCOCC1` [Compound 95, (2S,4R)-1-((S)-2-(2-(3-((3′-(((4,6-dimethyl-2-oxo-1,2-dihydropyridin-3-yl)methyl)carbamoyl)-5′-(ethyl(tetrahydro-2H-pyran-4-yl)amino)-4′-methyl-[1,1′-biphenyl]-4-yl)oxy)propoxy)acetamido)-3,3-dimethylbutanoyl)-4-hydroxy-N-((S)-1-(4-(4-methylthiazol-5-yl)phenyl)ethyl)pyrrolidine-2-carboxamide], for which the “percent target protein degradation class” value is “A (A = degradation more than 60%)”.

For the compound `CCN(c1cc(-c2ccc(OCCOCCOCC(=O)N[C@H](C(=O)N3C[C@@H](O)C[C@@H]3C(=O)N[C@@H](C)c3ccc(-c4scnc4C)cc3)C(C)(C)C)cc2)cc(C(=O)NCc2c(C)cc(C)[nH]c2=O)c1C)C1CCOCC1` [Compound 96, (2R,4S)-1-((S)-2-(2-(2-(2-((3′-(((4,6-dimethyl-2-oxo-1,2-dihydropyridin-3-yl)methyl)carbamoyl)-5′-(ethyl(tetrahydro-2H-pyran-4-yl)amino)-4′-methyl-[1,1′-biphenyl]-4-yl)oxy)ethoxy)ethoxy)acetamido)-3,3-dimethylbutanoyl)-4-hydroxy-N-((S)-1-(4-(4-methylthiazol-5-yl)phenyl)ethyl)pyrrolidine-2-carboxamide], the “percent target protein degradation class” value is “B (B = degradation between 30% and 60%)”.

Turning to `CCN(c1cc(-c2ccc(OCCCOc3ccc4c(c3)C(=O)N([C@@H](C(=O)N3C[C@H](O)C[C@H]3C(=O)N[C@@H](C)c3ccc(-c5scnc5C)cc3)C(C)C)C4)cc2)cc(C(=O)NCc2c(C)cc(C)[nH]c2=O)c1C)C1CCOCC1` [Compound 97, (2S,4R)-1-((R)-2-(6-(3-((3′-(((4,6-dimethyl-2-oxo-1,2-dihydropyridin-3-yl)methyl)carbamoyl)-5′-(ethyl(tetrahydro-2H-pyran-4-yl)amino)-4′-methyl-[1,1′-biphenyl]-4-yl)oxy)propoxy)-1-oxoisoindolin-2-yl)-3-methylbutanoyl)-4-hydroxy-N-((S)-1-(4-(4-methylthiazol-5-yl)phenyl)ethyl)pyrrolidine-2-carboxamide], the “percent target protein degradation class” value was “B (B = degradation between 30% and 60%)”.

`CCN(c1cc(-c2ccc(OCCCOc3ccc4c(c3)C(=O)N([C@H](C(=O)N3C[C@H](O)C[C@H]3C(=O)N[C@@H](C)c3ccc(-c5scnc5C)cc3)C(C)C)C4)cc2)cc(C(=O)NCc2c(C)cc(C)[nH]c2=O)c1C)C1CCOCC1` [Compound 98, (2S,4R)-1-((S)-2-(6-(3-((3′-(((4,6-dimethyl-2-oxo-1,2-dihydropyridin-3-yl)methyl)carbamoyl)-5′-(ethyl(tetrahydro-2H-pyran-4-yl)amino)-4′-methyl-[1,1′-biphenyl]-4-yl)oxy)propoxy)-1-oxoisoindolin-2-yl)-3-methylbutanoyl)-4-hydroxy-N-((S)-1-(4-(4-methylthiazol-5-yl)phenyl)ethyl)pyrrolidine-2-carboxamide]: the “percent target protein degradation class” value is “B (B = degradation between 30% and 60%)”.

Regarding `CCN(c1cc(-c2ccc(COCCOc3ccc4c(c3)C(=O)N([C@H](C(=O)N3C[C@H](O)C[C@H]3C(=O)N[C@@H](C)c3ccc(-c5scnc5C)cc3)C(C)C)C4)cc2)cc(C(=O)NCc2c(C)cc(C)[nH]c2=O)c1C)C1CCOCC1` [Compound 99, (2S,4R)-1-((S)-2-(6-(2-((3′-((4,6-dimethyl-2-oxo-1,2-dihydropyridin-3-yl)methylcarbamoyl)-5′-(ethyl(tetrahydro-2H-pyran-4-yl)amino)-4′-methylbiphenyl-4-yl)methoxy)ethoxy)-1-oxoisoindolin-2-yl)-3-methylbutanoyl)-4-hydroxy-N—((S)-1-(4-(4-methylthiazol-5-yl)phenyl)ethyl)pyrrolidine-2-carboxamide], the “percent target protein degradation class” value is recorded as “A (A = degradation more than 60%)”.

As to `CCN(c1cc(-c2ccc(OCCOc3ccc4c(c3)C(=O)N([C@H](C(=O)N3C[C@H](O)C[C@H]3C(=O)N[C@@H](C)c3ccc(-c5scnc5C)cc3)C(C)C)C4)cc2)cc(C(=O)NCc2c(C)cc(C)[nH]c2=O)c1C)C1CCOCC1` [Compound 100], the “percent target protein degradation class” value is given as “A (A = degradation more than 60%)”.

As for `CCN(c1cc(-c2ccc(OCCCCOc3ccc4c(c3)C(=O)N([C@@H](C(=O)N3C[C@H](O)C[C@H]3C(=O)N[C@@H](C)c3ccc(-c5scnc5C)cc3)C(C)C)C4)cc2)cc(C(=O)NCc2c(C)cc(C)[nH]c2=O)c1C)C1CCOCC1` [Compound 101, (2S,4R)-1-((R)-2-(6-(4-((3′-(((4,6-dimethyl-2-oxo-1,2-dihydropyridin-3-yl)methyl)carbamoyl)-5′-(ethyl(tetrahydro-2H-pyran-4-yl)amino)-4′-methyl-[1,1′-biphenyl]-4-yl)oxy)butoxy)-1-oxoisoindolin-2-yl)-3-methylbutanoyl)-4-hydroxy-N-((S)-1-(4-(4-methylthiazol-5-yl)phenyl)ethyl)pyrrolidine-2-carboxamide], the “percent target protein degradation class” value is “B (B = degradation between 30% and 60%)”.

Consider `CCN(c1cc(-c2ccc(OCCCCOc3ccc4c(c3)C(=O)N([C@H](C(=O)N3C[C@H](O)C[C@H]3C(=O)N[C@@H](C)c3ccc(-c5scnc5C)cc3)C(C)C)C4)cc2)cc(C(=O)NCc2c(C)cc(C)[nH]c2=O)c1C)C1CCOCC1` [Compound 102], for which the “percent target protein degradation class” value is “B (B = degradation between 30% and 60%)”.

With `CCN(c1cc(-c2ccc(OCCCCOc3ccc4c(c3)C(=O)N(C(C(=O)N3C[C@H](O)C[C@H]3C(=O)N[C@@H](C)c3ccc(-c5scnc5C)cc3)C(C)C)C4)cc2)cc(C(=O)NCc2c(C)cc(C)[nH]c2=O)c1C)C1CCOCC1` (stereo partly drawn) [Compound 103, (2S,4R)-1-(2-(6-(4-((3′-(((4,6-dimethyl-2-oxo-1,2-dihydropyridin-3-yl)methyl)carbamoyl)-5′-(ethyl(tetrahydro-2H-pyran-4-yl)amino)-4′-methyl-[1,1′-biphenyl]-4-yl)oxy)butoxy)-1-oxoisoindolin-2-yl)-3-methylbutanoyl)-4-hydroxy-N-((S)-1-(4-(4-methylthiazol-5-yl)phenyl)ethyl)pyrrolidine-2-carboxamide], the “percent target protein degradation class” value is “B (B = degradation between 30% and 60%)”.
